Data: US8901118B2, “Compounds and methods for kinase modulation, and indications therefor” (Plexxikon Inc., priority 2010, dated 2014)
pIC50: −log10 of the molar value.

What was measured:
Flt-3 kinase = target: T1, Flt-3 kinase (Homo sapiens, UniProt P36888); assay: Flt-3 kinase biochemical activity assay (AlphaScreen); conditions: 100 μM ATP; read-out: Biochemical Inhibition IC50 Flt3
T1 sequence (P36888 27-993): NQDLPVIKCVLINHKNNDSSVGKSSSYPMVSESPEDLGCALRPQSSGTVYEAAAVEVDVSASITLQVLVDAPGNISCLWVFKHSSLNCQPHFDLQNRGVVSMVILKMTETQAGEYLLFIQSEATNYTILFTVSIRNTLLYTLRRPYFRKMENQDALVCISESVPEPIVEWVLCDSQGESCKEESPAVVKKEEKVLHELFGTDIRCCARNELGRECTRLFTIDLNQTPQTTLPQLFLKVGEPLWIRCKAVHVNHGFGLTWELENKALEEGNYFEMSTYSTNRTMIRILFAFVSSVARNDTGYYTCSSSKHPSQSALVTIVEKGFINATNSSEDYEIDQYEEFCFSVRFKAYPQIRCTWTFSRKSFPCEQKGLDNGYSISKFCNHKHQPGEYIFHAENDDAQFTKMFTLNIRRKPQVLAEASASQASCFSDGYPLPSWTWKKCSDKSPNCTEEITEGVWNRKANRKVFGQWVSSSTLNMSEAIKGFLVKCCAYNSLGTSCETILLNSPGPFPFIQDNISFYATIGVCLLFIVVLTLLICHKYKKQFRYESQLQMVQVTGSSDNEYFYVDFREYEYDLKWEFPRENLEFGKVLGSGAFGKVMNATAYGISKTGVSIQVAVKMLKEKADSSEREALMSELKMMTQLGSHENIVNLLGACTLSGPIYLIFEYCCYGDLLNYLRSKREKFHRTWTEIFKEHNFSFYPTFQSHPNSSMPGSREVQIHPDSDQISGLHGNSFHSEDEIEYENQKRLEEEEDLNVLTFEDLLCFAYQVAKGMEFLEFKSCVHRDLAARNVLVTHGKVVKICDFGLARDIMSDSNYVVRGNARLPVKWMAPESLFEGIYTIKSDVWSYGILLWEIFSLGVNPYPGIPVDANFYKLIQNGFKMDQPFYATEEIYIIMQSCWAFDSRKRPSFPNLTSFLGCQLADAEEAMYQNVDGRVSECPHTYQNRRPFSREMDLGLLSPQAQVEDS
Summary of the method: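 Recombinant kinase (1 ng/well) phosphorylated 30 nM biotin-(E4Y)10 with 100 μM ATP in Hepes pH 7.5 buffer with Mg/Mn, 5% DMSO, for 1 h at room temperature. EDTA-containing AlphaScreen streptavidin donor/PY20 acceptor beads detected phosphotyrosine; IC50 was derived from signal versus concentration.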

CYP2D6 = CYP2D6 (Homo sapiens, UniProt P10635); assay: CYP2D6 inhibition (fluorescent substrate AMMC); format: in vitro ADME; conditions: read-out: Cyp IC50 2D6
Summary of the method: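 Test compounds, 10-point 1:1 serial dilutions in NADPH-regenerating cofactor mix, were preincubated 10 min at 37° C before recombinant enzyme and fluorogenic substrate reactions at 37° C (CYP1A2 15 min; CYP2C9 45 min; CYP2C19, 2D6 30 min). Product fluorescence was read at 409 ex with 460 em (1A2, 2C19) or 530 em (2C9, 2D6), and IC50 fitted from signal versus concentration.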

CYP2D6, sequence (P10635 whole entry): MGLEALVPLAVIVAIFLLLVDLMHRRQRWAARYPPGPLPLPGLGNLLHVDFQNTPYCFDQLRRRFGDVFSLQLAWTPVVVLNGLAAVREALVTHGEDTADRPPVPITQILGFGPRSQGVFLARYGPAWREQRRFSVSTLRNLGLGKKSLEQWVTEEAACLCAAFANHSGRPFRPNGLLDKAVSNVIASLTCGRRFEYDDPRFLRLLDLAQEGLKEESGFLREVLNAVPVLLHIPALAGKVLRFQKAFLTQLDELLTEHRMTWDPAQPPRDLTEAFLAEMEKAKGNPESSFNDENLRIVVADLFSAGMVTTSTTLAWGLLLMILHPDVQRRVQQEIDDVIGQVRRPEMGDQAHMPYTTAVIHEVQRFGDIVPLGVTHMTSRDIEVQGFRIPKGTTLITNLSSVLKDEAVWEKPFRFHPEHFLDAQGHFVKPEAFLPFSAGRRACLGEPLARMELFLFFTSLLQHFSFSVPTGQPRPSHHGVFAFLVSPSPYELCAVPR

Row | Compound | pIC50 (Flt-3 kinase) | pIC50 (CYP2D6)
1 | CCn1cc(Nc2ccc(Cc3c[nH]c4ncnc(OCCOC)c34)c(F)n2)cn1 [Compound P-4014, (1-Ethyl-1H-pyrazol-4-yl)-{6-fluoro-5-[4-(2-methoxy-ethoxy)-7H-pyrrolo[2,3-d]pyrimidin-5-ylmethyl]-pyridin-2-yl}-amine] | > 6.00 | > 5.30
2 | COCCOc1ncnc2[nH]cc(Cc3ccc(Nc4ccc(C)nc4)nc3F)c12 [Compound P-4015, {6-Fluoro-5-[4-(2-methoxy-ethoxy)-7H-pyrrolo[2,3-d]pyrimidin-5-ylmethyl]-pyridin-2-yl}-(6-methyl-pyridin-3-yl)-amine] | < 6.00 | < 5.00
3 | COc1ccc(Nc2ccc(Cc3c[nH]c4ncnc(C5CC5)c34)c(F)n2)cn1 [Compound P-4023, [5-(4-cyclopropyl-7H-pyrrolo[2,3-d]pyrimidin-5-ylmethyl)-6-fluoro-pyridin-2-yl]-(6-methoxy-pyridin-3-yl)-amine] | > 6.00 | 5.00 to 5.30
4 | CCOc1ccc(Nc2ccc(C(=O)c3c[nH]c4ncnc(OC)c34)c(F)n2)cn1 [Compound P-4024, [6-(6-Ethoxy-pyridin-3-ylamino)-2-fluoro-pyridin-3-yl]-(4-methoxy-7H-pyrrolo[2,3-d]pyrimidin-5-yl)-methanone] | > 7.00 | < 5.00
5 | CCOc1ncnc2[nH]cc(C(=O)c3ccc(Nc4ccc(OC)nc4)nc3F)c12 [Compound P-4025, (4-Ethoxy-7H-pyrrolo[2,3-d]pyrimidin-5-yl)-[2-fluoro-6-(6-methoxy-pyridin-3-ylamino)-pyridin-3-yl]-methanone] | > 6.00 | < 5.00
6 | CCc1ccc(Nc2ccc(Cc3c[nH]c4ncnc(C5CC5)c34)c(F)n2)cn1 [Compound P-4028, [5-(4-Cyclopropyl-7H-pyrrolo[2,3-d]pyrimidin-5-ylmethyl)-6-fluoro-pyridin-2-yl]-(6-ethyl-pyridin-3-yl)-amine] | > 7.00 | < 5.00
7 | Cc1ccc(Nc2ccc(Cc3c[nH]c4ncnc(C5CC5)c34)c(F)n2)cn1 [Compound P-4030, [5-(4-Cyclopropyl-7H-pyrrolo[2,3-d]pyrimidin-5-ylmethyl)-6-fluoro-pyridin-2-yl]-(6-methyl-pyridin-3-yl)-amine] | > 6.00 | < 5.00
8 | Cc1ccc(Nc2ccc(C(=O)c3c[nH]c4ncnc(C5CC5)c34)c(F)n2)cn1 [Compound P-4031, (4-Cyclopropyl-7H-pyrrolo[2,3-d]pyrimidin-5-yl)-[2-fluoro-6-(6-methyl-pyridin-3-ylamino)-pyridin-3-yl]-methanone] | > 7.00 | > 5.30
9 | CCn1cc(Nc2ccc(Cc3c[nH]c4ncnc(C5CC5)c34)c(F)n2)cn1 [Compound P-4036, [5-(4-Cyclopropyl-7H-pyrrolo[2,3-d]pyrimidin-5-ylmethyl)-6-fluoro-pyridin-2-yl]-(1-ethyl-1H-pyrazol-4-yl)-amine] | < 6.00 | < 5.00
10 | CCn1cc(Nc2ccc(C(=O)c3c[nH]c4ncnc(C5CC5)c34)c(F)n2)cn1 [Compound P-4037, (4-Cyclopropyl-7H-pyrrolo[2,3-d]pyrimidin-5-yl)-[6-(1-ethyl-1H-pyrazol-4-ylamino)-2-fluoro-pyridin-3-yl]-methanone] | > 6.00 | < 5.00

Next, values leading:

Row | pIC50 (Flt-3 kinase) | pIC50 (CYP2D6) | Compound
11 | > 8.00 | < 5.00 | CCc1ccc(Nc2ccc(Cc3c[nH]c4ncnc(OCCOC)c34)c(F)n2)cn1 [Compound P-4016, (6-Ethyl-pyridin-3-yl)-{6-fluoro-5-[4-(2-methoxy-ethoxy)-7H-pyrrolo[2,3-d]pyrimidin-5-ylmethyl]-pyridin-2-yl}-amine]
12 | > 7.00 | < 5.00 | CCOc1ncnc2[nH]cc(Cc3ccc(Nc4ccc(C)nc4)nc3F)c12 [Compound P-4017, [5-(4-Ethoxy-7H-pyrrolo[2,3-d]pyrimidin-5-ylmethyl)-6-fluoro-pyridin-2-yl]-(6-methyl-pyridin-3-yl)-amine]
13 | > 7.00 | < 5.00 | CCOc1ncnc2[nH]cc(Cc3ccc(Nc4ccc(OC)nc4)nc3F)c12 [Compound P-4018, [5-(4-Ethoxy-7H-pyrrolo[2,3-d]pyrimidin-5-ylmethyl)-6-fluoro-pyridin-2-yl]-(6-methoxy-pyridin-3-yl)-amine]
14 | > 7.00 | < 5.00 | COCCOc1ncnc2[nH]cc(Cc3ccc(Nc4ccc(OC)nc4)nc3F)c12 [Compound P-4019, {6-Fluoro-5-[4-(2-methoxy-ethoxy)-7H-pyrrolo[2,3-d]pyrimidin-5-ylmethyl]-pyridin-2-yl}-(6-methoxy-pyridin-3-yl)-amine]
15 | > 7.00 | 5.00 to 5.30 | COc1ccc(Nc2ccc(C(=O)c3c[nH]c4ncnc(C5CC5)c34)c(F)n2)cn1 [Compound P-4022, (4-cyclopropyl-7H-pyrrolo[2,3-d]pyrimidin-5-yl)-[2-fluoro-6-(6-methoxy-pyridin-3-ylamino)-pyridin-3-yl]-methanone]
16 | > 8.00 | < 5.00 | CCc1ccc(Nc2ccc(C(=O)c3c[nH]c4ncnc(C5CC5)c34)c(F)n2)cn1 [Compound P-4029, (4-Cyclopropyl-7H-pyrrolo[2,3-d]pyrimidin-5-yl)-[6-(6-ethyl-pyridin-3-ylamino)-2-fluoro-pyridin-3-yl]-methanone]
